According to patent US12295936B2, “Immunomodulating urea azalides” (Zoetis Services LLC, priority 2020, dated 2025):

Tested on: BRD pathogens, M. haemolytica and P. multocida
Test: MIC screening panel of BRD pathogens (antibacterial / non-antibacterial)
Conditions: read-out: antibacterial / non-antibacterial (MIC for the BRD pathogens)

| Compound | MIC |
| --- | --- |
| CC[C@H]1OC(=O)[C@H](C)[C@@H](O[C@H]2C[C@@](C)(OC)[C@](O)(CN3CCN(c4ncccn4)CC3)[C@H](C)O2)[C@H](C)[C@@H](O[C@@H]2O[C@H](C)C[C@H](N(C)C(=O)N(C)c3ccccc3)[C@H]2O)[C@](C)(O)C[C@@H](C)CN[C@H](C)[C@@H](O)[C@]1(C)O [Example J-13, 1-((2S,3R,4S,6R)-2-(((2R,3S,4R,5R,8R,10R,11R,12S,13S,14R)-2-ethyl-3,4,10-trihydroxy-13-(((2R,4R,5S,6S)-5-hydroxy-4-methoxy-4,6-dimethyl-5-((4-(pyrimidin-2-yl)piperazin-1-yl)methyl)tetrahydro-2H-pyran-2-yl)oxy)-3,5,8,10,12,14-hexamethyl-15-oxo-1-oxa-6-azacyclopentadecan-11-yl)oxy)-3-hydroxy-6-methyltetrahydro-2H-pyran-4-yl)-1,3-dimethyl-3-phenylurea] | > 64 µg/mL |
| CCCNC[C@]1(O)[C@H](C)O[C@@H](O[C@H]2[C@H](C)[C@@H](O[C@@H]3O[C@H](C)C[C@H](N(C)C(=O)N(c4ccccc4)C(C)C)[C@H]3O)[C@](C)(O)C[C@@H](C)CN[C@H](C)[C@@H](O)[C@](C)(O)[C@@H](CC)OC(=O)[C@@H]2C)C[C@@]1(C)OC [Example H-17, 1-((2S,3R,4S,6R)-2-(((2R,3S,4R,5R,8R,10R,11R,12S,13S,14R)-2-ethyl-3,4,10-trihydroxy-13-(((2R,4R,5S,6S)-5-hydroxy-4-methoxy-4,6-dimethyl-5-((propylamino)methyl)tetrahydro-2H-pyran-2-yl)oxy)-3,5,8,10,12,14-hexamethyl-15-oxo-1-oxa-6-azacyclopentadecan-11-yl)oxy)-3-hydroxy-6-methyltetrahydro-2H-pyran-4-yl)-3-isopropyl-1-methyl-3-phenylurea] | > 64 µg/mL |
| CC[C@H]1OC(=O)[C@H](C)[C@@H](O[C@H]2C[C@@](C)(OC)[C@](O)(CC#N)[C@H](C)O2)[C@H](C)[C@@H](O[C@@H]2O[C@H](C)C[C@H](N(C)C(=O)N(C)c3ccc(C(F)(F)F)cc3)[C@H]2O)[C@](C)(O)C[C@@H](C)CN[C@H](C)[C@@H](O)[C@]1(C)O [Example G-3, 1-((2S,3R,4S,6R)-2-(((2R,3S,4R,5R,8R,10R,11R,12S,13S,14R)-13-(((2R,4R,5S,6S)-5-(cyanomethyl)-5-hydroxy-4-methoxy-4,6-dimethyltetrahydro-2H-pyran-2-yl)oxy)-2-ethyl-3,4,10-trihydroxy-3,5,8,10,12,14-hexamethyl-15-oxo-1-oxa-6-azacyclopentadecan-11-yl)oxy)-3-hydroxy-6-methyltetrahydro-2H-pyran-4-yl)-1,3-dimethyl-3-(4-(trifluoromethyl)phenyl)urea] | > 64 µg/mL |
| CCCN(C[C@]1(O)[C@H](C)O[C@@H](O[C@H]2[C@H](C)[C@@H](O[C@@H]3O[C@H](C)C[C@H](N(C)C(=O)Nc4ccc(F)cc4)[C@H]3O)[C@](C)(O)C[C@@H](C)CN[C@H](C)[C@@H](O)[C@](C)(O)[C@@H](CC)OC(=O)[C@@H]2C)C[C@@]1(C)OC)C(=O)Nc1ccc(F)cc1 [Example H-10, 1-((2S,3R,4S,6R)-2-(((2R,3S,4R,5R,8R,10R,11R,12S,13S,14R)-2-ethyl-13-(((2R,4R,5S,6S)-5-((3-(4-fluorophenyl)-1-propylureido)methyl)-5-hydroxy-4-methoxy-4,6-dimethyltetrahydro-2H-pyran-2-yl)oxy)-3,4,10-trihydroxy-3,5,8,10,12,14-hexamethyl-15-oxo-1-oxa-6-azacyclopentadecan-11-yl)oxy)-3-hydroxy-6-methyltetrahydro-2H-pyran-4-yl)-3-(4-fluorophenyl)-1-methylurea] | > 64 µg/mL |
| CC[C@H]1OC(=O)[C@H](C)[C@@H](O)[C@H](C)[C@@H](O[C@@H]2O[C@H](C)C[C@H](N(C)C(=O)N(C)c3ccccc3)[C@H]2O)[C@](C)(O)C[C@@H](C)CN[C@H](C)[C@@H](O)[C@]1(C)O [Example A-26, 1-((2S,3R,4S,6R)-2-(((2R,3S,4R,5R,8R,10R,11R,12S,13S,14R)-2-ethyl-3,4,10,13-tetrahydroxy-3,5,8,10,12,14-hexamethyl-15-oxo-1-oxa-6-azacyclopentadecan-11-yl)oxy)-3-hydroxy-6-methyltetrahydro-2H-pyran-4-yl)-1,3-dimethyl-3-phenylurea] | > 64 µg/mL |
| CC[C@H]1OC(=O)[C@H](C)[C@@H](O)[C@H](C)[C@@H](O[C@@H]2O[C@H](C)C[C@H](N(C)C(=O)Nc3cnccn3)[C@H]2O)[C@](C)(O)C[C@@H](C)CN[C@H](C)[C@@H](O)[C@]1(C)O [Example A-2, 1-((2S,3R,4S,6R)-2-(((2R,3S,4R,5R,8R,10R,11R,12S,13S,14R)-2-ethyl-3,4,10,13-tetrahydroxy-3,5,8,10,12,14-hexamethyl-15-oxo-1-oxa-6-azacyclopentadecan-11-yl)oxy)-3-hydroxy-6-methyltetrahydro-2H-pyran-4-yl)-1-methyl-3-(pyrazin-2-yl)urea] | > 64 µg/mL |
| CC[C@H]1OC(=O)[C@H](C)[C@@H](O[C@H]2C[C@@](C)(OC)[C@](O)(CCl)[C@H](C)O2)[C@H](C)[C@@H](O[C@@H]2O[C@H](C)C[C@H](N(C)C(=O)Nc3ccccc3)[C@H]2O)[C@](C)(O)C[C@@H](C)CN[C@H](C)[C@@H](O)[C@]1(C)O [Example E-1, 1-((2S,3R,4S,6R)-2-(((2R,3S,4R,5R,8R,10R,11R,12S,13S,14R)-13-(((2R,4R,5S,6S)-5-(chloromethyl)-5-hydroxy-4-methoxy-4,6-dimethyltetrahydro-2H-pyran-2-yl)oxy)-2-ethyl-3,4,10-trihydroxy-3,5,8,10,12,14-hexamethyl-15-oxo-1-oxa-6-azacyclopentadecan-11-yl)oxy)-3-hydroxy-6-methyltetrahydro-2H-pyran-4-yl)-1-methyl-3-phenylurea] | > 64 µg/mL |
| CCCNC[C@]1(O)[C@H](C)O[C@@H](O[C@H]2[C@H](C)[C@@H](O[C@@H]3O[C@H](C)C[C@H](N(C)C(=O)N(C)c4cccnc4)[C@H]3O)[C@](C)(O)C[C@@H](C)CN[C@H](C)[C@@H](O)[C@](C)(O)[C@@H](CC)OC(=O)[C@@H]2C)C[C@@]1(C)OC [Example H-53, 1-((2S,3R,4S,6R)-2-(((2R,3S,4R,5R,8R,10R,11R,12S,13S,14R)-2-ethyl-3,4,10-trihydroxy-13-(((2R,4R,5S,6S)-5-hydroxy-4-methoxy-4,6-dimethyl-5-((propylamino)methyl)tetrahydro-2H-pyran-2-yl)oxy)-3,5,8,10,12,14-hexamethyl-15-oxo-1-oxa-6-azacyclopentadecan-11-yl)oxy)-3-hydroxy-6-methyltetrahydro-2H-pyran-4-yl)-1,3-dimethyl-3-(pyridin-3-yl)urea] | > 64 µg/mL |
| CC[C@H]1OC(=O)[C@H](C)[C@@H](O[C@H]2C[C@@](C)(OC)[C@](O)(CNCCCN3CCCC3=O)[C@H](C)O2)[C@H](C)[C@@H](O[C@@H]2O[C@H](C)C[C@H](N(C)C(=O)N(C)c3ccccc3)[C@H]2O)[C@](C)(O)C[C@@H](C)CN[C@H](C)[C@@H](O)[C@]1(C)O [Example H-35, 1-((2S,3R,4S,6R)-2-(((2R,3S,4R,5R,8R,10R,11R,12S,13S,14R)-2-ethyl-3,4,10-trihydroxy-13-(((2R,4R,5S,6S)-5-hydroxy-4-methoxy-4,6-dimethyl-5-(((3-(2-oxopyrrolidin-1-yl)propyl)amino)methyl)tetrahydro-2H-pyran-2-yl)oxy)-3,5,8,10,12,14-hexamethyl-15-oxo-1-oxa-6-azacyclopentadecan-11-yl)oxy)-3-hydroxy-6-methyltetrahydro-2H-pyran-4-yl)-1,3-dimethyl-3-phenylurea] | > 64 µg/mL |
| CCCNC[C@]1(O)[C@H](C)O[C@@H](O[C@H]2[C@H](C)[C@@H](O[C@@H]3O[C@H](C)C[C@H](N(C)C(=O)NCCN(C)C)[C@H]3O)[C@](C)(O)C[C@@H](C)CN[C@H](C)[C@@H](O)[C@](C)(O)[C@@H](CC)OC(=O)[C@@H]2C)C[C@@]1(C)OC [Example H-6, 3-(2-(dimethylamino)ethyl)-1-((2S,3R,4S,6R)-2-(((2R,3S,4R,5R,8R,10R,11R,12S,13S,14R)-2-ethyl-3,4,10-trihydroxy-13-(((2R,4R,5S,6S)-5-hydroxy-4-methoxy-4,6-dimethyl-5-((propylamino)methyl)tetrahydro-2H-pyran-2-yl)oxy)-3,5,8,10,12,14-hexamethyl-15-oxo-1-oxa-6-azacyclopentadecan-11-yl)oxy)-3-hydroxy-6-methyltetrahydro-2H-pyran-4-yl)-1-methylurea] | > 64 µg/mL |
| CCOC[C@]1(O)[C@H](C)O[C@@H](O[C@H]2[C@H](C)[C@@H](O[C@@H]3O[C@H](C)C[C@H](N(C)C(=O)N(C)c4ccc(C(F)(F)F)cc4)[C@H]3O)[C@](C)(O)C[C@@H](C)CN[C@H](C)[C@@H](O)[C@](C)(O)[C@@H](CC)OC(=O)[C@@H]2C)C[C@@]1(C)OC [Example C-3, 1-((2S,3R,4S,6R)-2-(((2R,3S,4R,5R,8R,10R,11R,12S,13S,14R)-13-(((2R,4R,5S,6S)-5-(ethoxymethyl)-5-hydroxy-4-methoxy-4,6-dimethyltetrahydro-2H-pyran-2-yl)oxy)-2-ethyl-3,4,10-trihydroxy-3,5,8,10,12,14-hexamethyl-15-oxo-1-oxa-6-azacyclopentadecan-11-yl)oxy)-3-hydroxy-6-methyltetrahydro-2H-pyran-4-yl)-1,3-dimethyl-3-(4-(trifluoromethyl)phenyl)urea] | > 64 µg/mL |
| CC[C@H]1OC(=O)[C@H](C)[C@@H](O[C@H]2C[C@@](C)(OC)[C@](O)(CNCC3CC3)[C@H](C)O2)[C@H](C)[C@@H](O[C@@H]2O[C@H](C)C[C@H](N(C)C(=O)N(C)c3ccccc3)[C@H]2O)[C@](C)(O)C[C@@H](C)CN[C@H](C)[C@@H](O)[C@]1(C)O [Example H-41, 1-((2S,3R,4S,6R)-2-(((2R,3S,4R,5R,8R,10R,11R,12S,13S,14R)-13-(((2R,4R,5S,6S)-5-(((cyclopropylmethyl)amino)methyl)-5-hydroxy-4-methoxy-4,6-dimethyltetrahydro-2H-pyran-2-yl)oxy)-2-ethyl-3,4,10-trihydroxy-3,5,8,10,12,14-hexamethyl-15-oxo-1-oxa-6-azacyclopentadecan-11-yl)oxy)-3-hydroxy-6-methyltetrahydro-2H-pyran-4-yl)-1,3-dimethyl-3-phenylurea] | > 64 µg/mL |
